Where two headings read alike, the source gives them in different places.
How the values were obtained:
[1] = Mouse plasma stability (Examples 16-18); format: in vitro ADME; settings: for Mouse (5 μM) % Remaining 1 h (37° C.) * / Mouse (10 μM) % Remaining 1 h (37° C.) *: sum of both peaks of parent chromatogram
[2] = Artificial membrane permeability assay (PAMPA)
[3] = Tissue distribution of SDC-TRAP and degradation products in tumor-bearing mice (plasma, tumor, heart); format: in vivo, Female SCID Mouse (H1975); settings: for Kp: read-out: Tumor/Plasma Ratio
[4] = Permeability (10^−6 cm/s), 5 h incubation, peak area used in place of concentration, first table
[5] = Permeability (cm/s), 5 h incubation, peak area used in place of concentration, first table

Row | Mass Retention (%) ([2]; 5 h incubation, first table) | Papp at 5 h [2, 4] [×10⁻⁶ cm/s] | Papp at 5 h [2, 5] [×10⁻⁶ cm/s] | SMILES | Mass Retention (%) ([2]; same protocol, second table) | further results
1 | – | – | – | CCc1c2c(nc3ccc(O)cc13)-c1cc3c(c(=O)n1C2)COC(=O)C3(CC)OC(=O)N(C)CCOCCn1ccc2cc(-n3c(O)nnc3-c3cc(C(C)C)c(O)cc3O)ccc21 (centres unmarked) [SDC-TRAP-0037, 4,11-diethyl-9-hydroxy-3,14-dioxo-3,4,12,14-tetrahydro-1H-pyrano[3′,4′:6,7]indolizino[1,2-b]quinolin-4-yl (2-(2-(5-(3-(2,4-dihydroxy-5-isopropylphenyl)-5-hydroxy-4H-1,2,4-triazol-4-yl)-1H-indol-1-yl)ethoxy)ethyl) (methyl)carbamate] | – | Mouse (5 μM) % Remaining 1 h (37° C.) * ([1]; 5 μM, 1 h, 37° C.): 67%; Mouse (5 μM) % Remaining 19 h (37° C.) ([1]; 5 μM, 37° C.): 6%; Mouse (10 μM) % Remaining 1 h (37° C.) * ([1]; 1 h, 37° C.): 95%
2 | – | – | – | CCNC(=O)c1nnc(-c2cc(C(C)C)c(O)cc2O)n1-c1ccc(OC2CCN(c3cnc(C(=O)N[C@H]4C[C@H](O[C@H]5C[C@](O)(C(=O)CO)Cc6c(O)c7c(c(O)c65)C(=O)c5c(OC)cccc5C7=O)O[C@@H](C)[C@H]4O)cn3)CC2)cc1 [SDC-TRAP-0200, 5-(4-(4-(3-(2,4-dihydroxy-5-isopropylphenyl)-5-(ethylcarbamoyl)-4H-1,2,4-triazol-4-yl)phenoxy)piperidin-1-yl)-N-((2S,3S,4S,6R)-3-hydroxy-2-methyl-6-(((1S,3S)-3,5,12-trihydroxy-3-(2-hydroxyacetyl)-10-methoxy-6,11-dioxo-1,2,3,4,6,11-hexahydrotetracen-1-yl)oxy)tetrahydro-2H-pyran-4-yl)pyrazine-2-carboxamide] | 10.6 | –
3 | 21.0 | 0.0033 | 0.0033 | COc1cccc2c1C(=O)c1c(O)c3c(c(O)c1C2=O)C[C@@](O)(C(=O)CO)C[C@@H]3O[C@H]1C[C@H](N)[C@H](O)[C@H](C)O1 [Doxorubicin, doxorubicin, reference compound] | – | –
4 | – | – | – | CCc1c2c(nc3ccc(O)cc13)-c1cc3c(c(=O)n1C2)COC(=O)[C@@]3(CC)OC(=O)N1CCC(CCn2ccc3cc(-n4c(O)nnc4-c4cc(C(C)C)c(O)cc4O)ccc32)CC1 [SDC-TRAP-0064, (S)-4,11-diethyl-9-hydroxy-3,14-dioxo-3,4,12,14-tetrahydro-1H-pyrano[3′,4′:6,7]indolizino[1,2-b]quinolin-4-yl 4-(2-(5-(3-(2,4-dihydroxy-5-isopropylphenyl)-5-hydroxy-4H-1,2,4-triazol-4-yl)-1H-indol-1-yl)ethyl)piperidine-1-carboxylate] | 48.4 | –
5 | – | – | – | CCNC(=O)c1nnc(-c2cc(C(C)C)c(O)cc2O)n1-c1ccc(Oc2ccc(C(=O)N3CCC(C(=O)OC4(CC)C(=O)OCc5c4cc4n(c5=O)Cc5c-4nc4ccc(O)cc4c5CC)CC3)cc2)cc1 (centres unmarked) [SDC-TRAP-0154, 4,11-Diethyl-9-hydroxy-3,14-dioxo-3,4,12,14-tetrahydro-1H-pyrano[3′,4′:6,7]indolizino[1,2-b]quinolin-4-yl 1-(4-(4-(3-(2,4-dihydroxy-5-isopropylphenyl)-5-(ethylcarbamoyl)-4H-1,2,4-triazol-4-yl)phenoxy)benzoyl)piperidine-4-carboxylate] | 10.3 | Kp ([3]; female, SCID, mouse, in vivo, tissue distribution of SDC-TRAP-0154, 6 h): 0.44; Kp ([3]; female, SCID, mouse, in vivo, tissue distribution of SDC-TRAP-0154, 24 h): 2.68; Kp ([3]; female, SCID, mouse, in vivo, tissue distribution of SDC-TRAP-0154, 48 h): 26.8; Plasma Conc. ([3]; tissue distribution of SDC-TRAP-0154, 1 h): 215 µM; Tumor Conc. ([3]; tissue distribution of SDC-TRAP-0154, 24 h): 0.115 nmol/g of tissue; Tumor Conc. ([3]; tissue distribution of SDC-TRAP-0154, 48 h): 0.0921 nmol/g of tissue
6 | – | – | – | CCNC(=O)c1nnc(-c2cc(C(C)C)c(O)cc2O)n1-c1ccc2c(ccn2CCC2CCN(C(=O)O[C@]3(CC)C(=O)OCc4c3cc3n(c4=O)Cc4c-3nc3ccc(O)cc3c4CC)CC2)c1 [SDC-TRAP-0208, (S)-4,11-diethyl-9-hydroxy-3,14-dioxo-3,4,12,14-tetrahydro-1H-pyrano[3′,4′:6,7]indolizino[1,2-b]quinolin-4-yl 4-(2-(5-(3-(2,4-dihydroxy-5-isopropylphenyl)-5-(ethylcarbamoyl)-4H-1,2,4-triazol-4-yl)-1H-indol-1-yl)ethyl)piperidine-1-carboxylate] | 25.0 | –
7 | 14.1 | 0.0124 | 0.0124 | CC(C)c1cc(-c2nnc(O)n2-c2ccc(CN3CCN(C(=O)CCn4cc(F)c(=O)[nH]c4=O)CC3)cc2)c(O)cc1O [SDC-TRAP-0049, 1-(3-(4-(4-(3-(2,4-dihydroxy-5-isopropylphenyl)-5-hydroxy-4H-1,2,4-triazol-4-yl)benzyl)piperazin-1-yl)-3-oxopropyl)-5-fluoropyrimidine-2,4 (1H,3H)-dione] | – | –
8 | 10.2 | 0.00859 | 0.00859 | CCNC(=O)c1nnc(-c2cc(C(C)C)c(O)cc2O)n1-c1ccc(CN2CCC(C(=O)N[C@@H](CC(C)C)C(=O)Nc3cccc4c3CN(C3CCC(=O)NC3=O)C4=O)CC2)cc1 (stereo partly drawn) [SDC-TRAP-0193, 1-(4-(3-(2,4-dihydroxy-5-isopropylphenyl)-5-(ethylcarbamoyl)-4H-1,2,4-triazol-4-yl)benzyl)-N-((2S)-1-((2-(2,6-dioxopiperidin-3-yl)-1-oxoisoindolin-4-yl)amino)-4-methyl-1-oxopentan-2-yl)piperidine-4-carboxamide] | – | –
9 | – | – | – | CC(C)c1cc(-c2nnc(O)n2-c2ccc(CN3CCN(C(=O)c4ccc(CCc5c[nH]c6nc(N)[nH]c(=O)c56)cc4)CC3)cc2)c(O)cc1O [SDC-TRAP-0068, 2-amino-5-(4-(4-(4-(3-(2,4-dihydroxy-5-isopropylphenyl)-5-hydroxy-4H-1,2,4-triazol-4-yl)benzyl)piperazine-1-carbonyl)phenethyl)-3H-pyrrolo[2,3-d]pyrimidin-4(7H)-one] | – | % Remaining (l h) ([1]; mouse, plasma, 1 h, 10 µM): 96.5%
10 | 21.0 | 0.00689 | 0.00689 | CC(C)c1cc(-c2nnc(C(=O)NCCCCCS(N)(=O)=O)n2-c2ccc(CN3CCOCC3)cc2)c(O)cc1O [SDC-TRAP-0232, 5-(2,4-dihydroxy-5-isopropylphenyl)-4-(4-(morpholinomethyl)phenyl)-N-(5-sulfamoylpentyl)-4H-1,2,4-triazole-3-carboxamide] | – | –
11 | 10.8 | 0.0283 | 0.0283 | CC(C)c1cc(-c2nnc(O)n2-c2ccc3c(ccn3CCOCCNC(=O)CCn3cc(F)c(=O)[nH]c3=O)c2)c(O)cc1O [SDC-TRAP-0048, N-(2-(2-(5-(3-(2,4-dihydroxy-5-isopropylphenyl)-5-hydroxy-4H-1,2,4-triazol-4-yl)-1H-indol-1-yl)ethoxy)ethyl)-3-(5-fluoro-2,4-dioxo-3,4-dihydropyrimidin-1 (2H)-yl)propanamide] | – | –
12 | – | – | – | CCc1c2c(nc3ccc(OC(=O)N4CCN(c5ccc(-n6c(O)nnc6-c6cc(C(C)C)c(O)cc6O)cc5)CC4)cc13)-c1cc3c(c(=O)n1C2)COC(=O)C3(O)CC (centres unmarked) [SDC-TRAP-0045, 4,11-diethyl-4-hydroxy-3,14-dioxo-3,4,12,14-tetrahydro-1H-pyrano[3′,4′:6,7]indolizino[1,2-b]quinolin-9-yl 4-(4-(3-(2,4-dihydroxy-5-isopropylphenyl)-5-hydroxy-4H-1,2,4-triazol-4-yl)phenyl)piperazine-1-carboxylate] | – | Mouse (5 μM) % Remaining 1 h (37° C.) § ([1]; 5 μM, 1 h, 37° C., data from single parent peak): 72%; Mouse (5 μM) % Remaining 1 h (37° C.) * ([1]; 5 μM, 1 h, 37° C.): 77%; Mouse (5 μM) % Remaining 19 h (37° C.) ([1]; 5 μM, 37° C.): 50%; Mouse (10 μM) % Remaining 1 h (37° C.) * ([1]; 1 h, 37° C.): 45%
13 | 26.0 | 0.062 | 0.062 | Nc1cccc2c1CN(C1CCC(=O)NC1=O)C2=O (centres unmarked) [Lenalidomide, lenalidomide, reference compound] | – | Kp at 1 h ([3]; female, SCID, mouse, in vivo): 11.9; Kp at […] ([3]; female, SCID, mouse, in vivo): 0.449
14 | – | – | – | CCNC(=O)c1nnc(-c2cc(C(C)C)c(O)cc2O)n1-c1ccc2c(ccn2CCC2CCN(C(=O)Oc3ccc4nc5c(c(CC)c4c3)Cn3c-5cc4c(c3=O)COC(=O)[C@]4(O)CC)CC2)c1 [SDC-TRAP-0205, (S)-4,11-diethyl-4-hydroxy-3,14-dioxo-3,4,12,14-tetrahydro-1H-pyrano[3′,4′:6,7]indolizino[1,2-b]quinolin-9-yl 4-(2-(5-(3-(2,4-dihydroxy-5-isopropylphenyl)-5-(ethylcarbamoyl)-4H-1,2,4-triazol-4-yl)-1H-indol-1-yl)ethyl)piperidine-1-carboxylate] | 10.9 | –

Row | SMILES | Mass Retention (%) ([2]; 5 h incubation, first table) | Papp at 5 h [2, 4] [×10⁻⁶ cm/s] | Papp at 5 h [2, 5] [×10⁻⁶ cm/s] | Mass Retention (%) ([2]; same protocol, second table) | further results
15 | CCNC(=O)c1nnc(-c2cc(C(C)C)c(O)cc2O)n1-c1ccc2c(c1)CN(Cc1cc(OC)c(OC(=O)Nc3cccc4c3CN(C3CCC(=O)NC3=O)C4=O)c(OC)c1)C2 (centres unmarked) [SDC-TRAP-0196, 4-((5-(3-(2,4-dihydroxy-5-isopropylphenyl)-5-(ethylcarbamoyl)-4H-1,2,4-triazol-4-yl)isoindolin-2-yl)methyl)-2,6-dimethoxyphenyl (2-(2,6-dioxopiperidin-3-yl)-1-oxoisoindolin-4-yl)carbamate] | 22.3 | – | – | – | –
16 | CCNC(=O)c1nnc(-c2cc(C(C)C)c(O)cc2O)n1-c1ccc(CN2CCC(C(=O)N3CCN(c4cc(C)c(OC(=O)Nc5cccc6c5CN(C5CCC(=O)NC5=O)C6=O)c(C)c4)CC3)CC2)cc1 (centres unmarked) [SDC-TRAP-0195, 4-(4-(1-(4-(3-(2,4-dihydroxy-5-isopropylphenyl)-5-(ethylcarbamoyl)-4H-1,2,4-triazol-4-yl)benzyl)piperidine-4-carbonyl)piperazin-1-yl)-2,6-dimethylphenyl (2-(2,6-dioxopiperidin-3-yl)-1-oxoisoindolin-4-yl)carbamate] | 27.1 | – | – | – | –
17 | Cn1c(=O)c2c(ncn2C)n(C)c1=O [Caffeine] | 20.8 | 11.7 | 11.7 | −0.11 | Papp at 5 h ([2]; Permeability (10^−6 cm/s), same protocol, second table): 14.3 ×10⁻⁶ cm/s; Papp at 5 h ([2]; Permeability (cm/s), same protocol, second table): 14.3 ×10⁻⁶ cm/s

From patent US20200316090A1, “TARGETED THERAPEUTICS” (MADRIGAL PHARMACEUTICALS, INC., priority 2012, published 2020)
